Measurements from patent US12201632B2, “Levoketoconazole for treatment of congenital adrenal hyperplasia and primary aldosteronism” (Strongbridge Dublin Limited, priority 2018, dated 2025).

Columns and labels:
HAC15 cells = assay: Cell number (DNA) of HAC15 cells; assay type: cell-based, Human; details: HAC15, 1 or 3 days, with or without ACTH
Experimental: Human adrenocortical carcinoma HAC15 and mouse corticotroph AtT20 cells were used, purchased as a kind gift by Dr. W. Rainey, and obtained from Dr. J. Tooze (European Organization for Molecular Biology), respectively. Both cell lines were cultured in 75 cm^2 flasks at 37° C. in a humidified incubator (Greiner Bio-One, Alphen a/d Rijn, the Netherlands) at 5% CO2. Dulbecco's Modified Eagle Medium F12 containing 5% fetal calf serum was used for HAC15, whereas AtT20 cells were cultured in Dulbecco's minimal essential medium (DMEM) supplemented with 10% fetal calf serum. Both mediums were supplemented with L-glutamine (2 mmol/L) and penicillin (10^5 U/L). Short tandem repeat (str) profiling using a Powerplex Kit (Promega, Leiden, the Netherlands) of HAC15 and AtT20 gave results consistent with the ATCC database, confirming the identity of both cell lines. Medium and supplements were obtained from Invitrogen, Breda, the Netherlands. Once a week, cells were harvested with trypsin (0.05%)-EDTA (0.53 mM) and resuspended in culture medium. […]
As a measure of cell number, DNA concentrations were determined using the bisbenzimide fluorescent dye (Hoechst 33258, Sigma Aldrich), as previously described.

[1] = test system: CPA primary culture no. 2; assay: Steroid profile by LC/MS-MS in CPA primary culture no. 2; assay type: cell-based, human; details: for 11-DOC absolute change vs control / 11-DOC percentage change vs control / 17-OHP absolute change vs control / 17-OHP percentage change vs control / Androstenedione absolute change vs control / Androstenedione percentage change vs control / Corticosterone absolute change vs control / Corticosterone percentage change vs control / Cortisol absolute change vs control / Cortisol percentage change vs control / DHEA absolute change vs control / DHEAS absolute change vs control / Prog absolute change vs control / Prog percentage change vs control / Testosterone absolute change vs control / Testosterone percentage change vs control: CPA no. 2, Basal, 3 days
Experimental: To obtain primary cultures, adrenal specimens (adrenocortical adenomas, adrenal hyperplasias and adrenocortical carcinomas) were collected after adrenalectomy at the department of Surgery, Erasmus University Medical Center, Rotterdam, the Netherlands, between April 2016 and May 2018. The study was conducted under guidelines that have been approved by the Medical Ethics Committee of the Erasmus Medical Center and informed consent was obtained from all patients. Immediately after surgery, specimens were minced into small pieces of 2-3 mm^3, washed in culture medium and centrifuged for 5 minutes at 600 g. The tissue was stored overnight in culture medium at 4° C., where after the tissue was centrifuged again and the supernatant was removed. Fragments were dissociated using 10-25 ml collagenase type 1 (2 mg/ml: Sigma-Aldrich), followed by incubation at 37° C. for up to two hours. Ficoll (GE healthcare) density gradient separation was used once or twice as required in order to separate contaminating red blood cells from the tumor cells. Cell viability and cell amount were counted by trypan blue exclusion. Dissociated cells were plated at a density of 10^5 cells per well. ACTH-secreting corticotroph pituitary adenoma tissue from patients with Cushing's disease (n=2) was available after transsphenoidal surgery. Single-cell suspensions of the pituitary adenoma tissues were prepared as previously described in detail.
Primary culture conditions for primary cultures were similar as described in the section ‘cell culture and compounds’, but with small adjustments: ACTH was used at a concentration of 85 pM (250 pg/mL), treatment was started 3-4 days after plating of the cells and cells were incubated for 3 days, and; for pituitary primary cultures, levoketoconazole and racemic ketoconazole were only tested at a concentration of 1 μM. Owing to a limited number of cells obtained from the specimens, not all experiments were carried out in every primary culture.
Cortisol concentrations were measured in the supernatant using a chemiluminescence immunoassay system (Immulite 2000XPi; Siemens DPC Inc., Los Angeles, Calif., USA). In addition, we carried out multi-steroid analysis by liquid chromatography/mass spectrometry (LC/MS-MS) to accurately quantify androstenedione, corticosterone, cortisol, 11-deoxycortisol, DHEA, DHEAS, progesterone, 17-hydroxyprogesterone, and testosterone. Concentrations that were tested on the LC/MS-MS were closest to 50% inhibition or maximal inhibition of cortisol as determined by the immunoassay. Steroids were quantified with respect to a calibration series, with internal standards. Steroids were quantified on a Xevo TQS LC-MS/MS (Waters Chromatography).
Statistical analysis was performed using Graphpad Prism 6.0 (Graphpad Software, San Diego, CA). Non-linear regression curve fitting program was used to calculate the half maximal inhibitory concentrations (IC50) on cortisol production. Effects of both compounds on the steroid profile were measured as absolute change compared to control and compared using the Student's t-test. When assessing differences between effects of both compounds, the percentage change was evaluated and compared in order to correct for differences in the vehicle treated control cells. Values of P<0.05 were considered statistically significant and data are presented as mean SEM.

Q: What does the source list for CC(=O)N1CCN(c2ccc(OC[C@@H]3CO[C@@](Cn4ccnc4)(c4ccc(Cl)cc4Cl)O3)cc2)CC1 (relative stereo) [levoketoconazole, 2S,4R cis-1-acetyl-4-[4-[[2-(2,4-dichlorophenyl)-2-(1H-imidazol-1-ylmethyl)-1,3-dioxolan-4-yl]methoxyl]phenyl]piperazine]?
A: effects on cell number (HAC15 cells): no effects; 11-DOC absolute change vs control ([1]; 0.1 μM): +14.80 nmol/l; 11-DOC percentage change vs control ([1]; 0.1 μM): (+5.4%); 17-OHP absolute change vs control ([1]; 0.1 μM): +5.125 nmol/l; 17-OHP percentage change vs control ([1]; 0.1 μM): (+26%); Androstenedione absolute change vs control ([1]; 0.1 μM): -36.68 nmol/L; Androstenedione percentage change vs control ([1]; 0.1 μM): −79%; Corticosterone absolute change vs control ([1]; 0.1 μM): +49.50 nmol/l; Corticosterone percentage change vs control ([1]; 0.1 μM): +54%; Cortisol absolute change vs control ([1]; 0.1 μM): -264.2 nmol/L; Cortisol percentage change vs control ([1]; 0.1 μM): −40%; DHEA absolute change vs control ([1]; 0.1 μM): <LLQ; DHEAS absolute change vs control ([1]; 0.1 μM): <LLQ; Prog absolute change vs control ([1]; 0.1 μM): +2.350 nmol/l; Prog percentage change vs control ([1]; 0.1 μM): (+138%); Testosterone absolute change vs control ([1]; 0.1 μM): -0.3750 nmol/L; Testosterone percentage change vs control ([1]; 0.1 μM): −66%; Androstenedione absolute change vs control ([1]; 0.1 μM, listed as LK): -36.68 nmol/L; Androstenedione percentage change vs control ([1]; 0.1 μM, listed as LK): (−79%); Corticosterone percentage change vs control ([1]; 0.1 μM, listed as LK): (+54%); Cortisol absolute change vs control ([1]; 0.1 μM, listed as LK): -264.2 nmol/L; Cortisol percentage change vs control ([1]; 0.1 μM, listed as LK): (−40%); Testosterone absolute change vs control ([1]; 0.1 μM, listed as LK): -0.3750 nmol/L; Testosterone percentage change vs control ([1]; 0.1 μM, listed as LK): (−66%); 11-DOC absolute change vs control ([1]; 0.5 μM): -98.25 nmol/L; 11-DOC percentage change vs control ([1]; 0.5 μM): (−36%); 17-OHP absolute change vs control ([1]; 0.5 μM): +21.28 nmol/l; 17-OHP percentage change vs control ([1]; 0.5 μM): (+107%); Androstenedione absolute change vs control ([1]; 0.5 μM): -45.18 nmol/L; Androstenedione percentage change vs control ([1]; 0.5 μM): (−97%); Corticosterone absolute change vs control ([1]; 0.5 μM): +218.0 nmol/l; Corticosterone percentage change vs control ([1]; 0.5 μM): (+239%); Cortisol absolute change vs control ([1]; 0.5 μM): -633.3 nmol/L; Cortisol percentage change vs control ([1]; 0.5 μM): (−96%); DHEA absolute change vs control ([1]; 0.5 μM): <LLQ; DHEAS absolute change vs control ([1]; 0.5 μM): <LLQ; Prog absolute change vs control ([1]; 0.5 μM): +39.95 nmol/l; Prog percentage change vs control ([1]; 0.5 μM): (+2350%); Testosterone absolute change vs control ([1]; 0.5 μM): -0.4725 nmol/L; Testosterone percentage change vs control ([1]; 0.5 μM): (−83%); total change of steroids: decrease ([1]; CPA no. 2, basal, 0.1 μM): 229.5 nmol/L

Q: For CC(=O)N1CCN(c2ccc(OCC3COC(Cn4ccnc4)(c4ccc(Cl)cc4Cl)O3)cc2)CC1 (racemic) [racemic ketoconazole, Ketoconazole], which “effects on cell number” value (HAC15 cells) is on record?
A: The value was “no effects”.

Q: What about the “11-DOC absolute change vs control” value ([1]; 0.1 μM) of the same compound?
A: Its value is “+6.400 nmol/l”.

Q: And the “11-DOC percentage change vs control” value ([1]; 0.1 μM)?
A: Its value is “(+2.4%)”.

Q: What about the “17-OHP absolute change vs control” value ([1]; 0.1 μM) of the same compound?
A: Its value is -0.4750 nmol/L.

Q: What about the “17-OHP percentage change vs control” value ([1]; 0.1 μM) of the same compound?
A: The value was “(−2.4%)”.

Q: What about the “Androstenedione absolute change vs control” value ([1]; 0.1 μM) of the same compound?
A: Its value is -32.85 nmol/L.

Q: And the “Androstenedione percentage change vs control” value ([1]; 0.1 μM)?
A: The value was −66%.

Q: What about the “Corticosterone absolute change vs control” value ([1]; 0.1 μM) of the same compound?
A: Its value is “+175.8 nmol/l”.

Q: And the “Corticosterone percentage change vs control” value ([1]; 0.1 μM)?
A: The value was “+213%”.

Q: What about the “Cortisol absolute change vs control” value ([1]; 0.1 μM) of the same compound?
A: Its value is -92.95 nmol/L.

Q: And the “Cortisol percentage change vs control” value ([1]; 0.1 μM)?
A: Its value is −14%.

Q: And the “DHEA absolute change vs control” value ([1]; 0.1 μM)?
A: Its value is “<LLQ”.

Q: What about the “DHEAS absolute change vs control” value ([1]; 0.1 μM) of the same compound?
A: Its value is “<LLQ”.

Q: What about the “Prog absolute change vs control” value ([1]; 0.1 μM) of the same compound?
A: Its value is “+0.5167 nmol/l”.

Q: And the “Prog percentage change vs control” value ([1]; 0.1 μM)?
A: Its value is “(+36%)”.

Q: And the “Testosterone absolute change vs control” value ([1]; 0.1 μM)?
A: Its value is -0.3250 nmol/L.

Q: And the “Testosterone percentage change vs control” value ([1]; 0.1 μM)?
A: The value was “(−57%)”.

Q: What about the “Androstenedione percentage change vs control” value ([1]; 0.1 μM, listed as RK) of the same compound?
A: The value was “(−66%*)”.

Q: And the “Corticosterone percentage change vs control” value ([1]; 0.1 μM, listed as RK)?
A: The value was “(+213%****)”.

Q: What about the “Cortisol percentage change vs control” value ([1]; 0.1 μM, listed as RK) of the same compound?
A: Its value is “(−14%**)”.

Q: And the “11-DOC absolute change vs control” value ([1]; 0.5 μM)?
A: Its value is -37.70 nmol/L.

Q: What about the “11-DOC percentage change vs control” value ([1]; 0.5 μM) of the same compound?
A: Its value is “(−14%***)”.

Q: What about the “17-OHP absolute change vs control” value ([1]; 0.5 μM) of the same compound?
A: Its value is “+11.45 ± 1 nmol/l”.

Q: And the “17-OHP percentage change vs control” value ([1]; 0.5 μM)?
A: Its value is “(+58%*)”.

Q: What about the “Androstenedione absolute change vs control” value ([1]; 0.5 μM) of the same compound?
A: Its value is -47.28 nmol/L.

Q: What about the “Androstenedione percentage change vs control” value ([1]; 0.5 μM) of the same compound?
A: Its value is “(−95%)”.

Q: What about the “Corticosterone absolute change vs control” value ([1]; 0.5 μM) of the same compound?
A: The value was “+143.8 nmol/l”.

Q: What about the “Corticosterone percentage change vs control” value ([1]; 0.5 μM) of the same compound?
A: The value was “(+174%*)”.

Q: What about the “Cortisol absolute change vs control” value ([1]; 0.5 μM) of the same compound?
A: The value was -562.7 nmol/L.

Q: And the “Cortisol percentage change vs control” value ([1]; 0.5 μM)?
A: The value was “(−87%)”.

Q: What about the “DHEA absolute change vs control” value ([1]; 0.5 μM) of the same compound?
A: The value was “<LLQ”.

Q: What about the “DHEAS absolute change vs control” value ([1]; 0.5 μM) of the same compound?
A: The value was “<LLQ”.

Q: What about the “Prog absolute change vs control” value ([1]; 0.5 μM) of the same compound?
A: Its value is “+22.47 nmol/l”.

Q: What about the “Prog percentage change vs control” value ([1]; 0.5 μM) of the same compound?
A: Its value is “(+1567%)”.

Q: What about the “Testosterone absolute change vs control” value ([1]; 0.5 μM) of the same compound?
A: Its value is -0.4475 nmol/L.

Q: What about the “Testosterone percentage change vs control” value ([1]; 0.5 μM) of the same compound?
A: Its value is “(−79%)”.

Q: What about the “total change of steroids: increase” value ([1]; CPA no. 2, basal, 0.1 μM) of the same compound?
A: Its value is 55.6 nmol/L.
